Where “and” joins values, the source holds several entries; their conditions need not be identical. Identical values can stand only once. Like-named read-outs stand apart in the source and are kept apart here.
Tests used:
[1] = tested on: Lymphoblastic leukemia cell line (CCRF-CEM); design: method as in PMID 23291595; conditions: cited from earlier work
[2] = tested on: leukemia cell line (Jurkat); design: method as in doi:10.1039/c3nj00513e; conditions: cited from earlier work
[3] = tested on: leukemia cell line (K562); conditions: cited from earlier work
[4] = tested on: Human prostate cancer cell line (PC-3); design: method as in PMID 23884119, PMID 25476168, PMID 30220830, PMID 23584541, PMID 28158265; conditions: literature example of Figure 1; cited from earlier work
[5] = tested on: MCF-7 (human breast adenocarcinoma) cells; assay: MTT cytotoxicity assay, MCF-7; format: cell-based; conditions: Homo sapiens, MCF7, 10 µM, 48 h exposure, read-out: % Cell Viability at 10 µM MCF-7
Procedure: (§1) The cytotoxicity activity of all the conjugates (6aa–6df) was evaluated in vitro by MTT assay against two different breast cancer cell lines 4T1 (murine) and MCF-7 (human) and HEK 293 (human) as normal cell line. DTX was used as positive control. Cells were grown in DMEM supplemented with 10% FBS and 1% antibiotic solution and incubated at 5% CO2 and 37 °C for 24 h. The stock solutions of all the conjugates were prepared in DMSO and diluted for further use. Briefly, 5 × 10^3 cells/well were seeded in 96-well cell culture plates and allowed to adhere for 24 h. Cell inhibition (%) was determined after 48 h exposure to the compounds at 1–25 μM concentration. After 48 h, MTT assay was performed and the yellow tetrazolium salt (MTT) was reduced in metabolically active cells to form insoluble purple formazan crystals, which were solubilized by the addition of DMSO. The optical density (OD) was recorded at 560 nm and 630 nm as reference wavelength. Percentage cell inhibition was determined by comparison with untreated cells.

[6] = Pharmacokinetic study in Wistar rats, i.v. bolus; format: in vivo; conditions: rat plasma, 10 mg/kg i.v. bolus
Procedure: Wistar rats (male; 8–10 weeks, 200–240 g) were procured from Central Animal Facility, BITS Pilani (Pilani, India). Animal experiment protocol was approved by Institutional Animal Ethics Committee (IAEC/RES/24/03), BITS Pilani, Pilani, and all experiments were conducted as per CPCSEA guidelines. Rats were housed in well-ventilated cages at standard laboratory conditions with regular light/dark cycles for 12 h and fed with standard normal diet ab libitum.
The pharmacokinetic study of 6cf was performed on Wistar rats. 6cf solution (prepared in normal saline with 5% w/v tween 80) was administered intravenously at the dose of 10 mg/kg with maximum dosing volume of 300 µL to each rat without fasting (n = 4). After i.v. dosing, blood samples were collected for each preset time point at 10, 20, 30, 50 min, 1.5, 2, 4, 6, 8, 12 and 24 h. 6cf plasma concentration–time profile was plotted and analyzed by non-compartmental model approach using Phoenix 2.1 WinNonlin (Pharsight Corporation, USA) to determine t1/2, elimination half-life; C0, drug concentration in plasma at t = 0; AUC0-t, area under curve from zero to the last time point; AUC0–∞, area under curve from zero to infinity; and MRT, mean residence time.
A simple liquid–liquid extraction (LLE) method was used for extraction of 6cf from the rat plasma. A 200 µL aliquot of plasma sample containing 6cf was taken in 5 mL glass tube, followed by the addition of 100 µL of internal standard (I.S.) (clobetasol, 2 µg/mL) solution. Samples were vortexed for 1 min, and then 2 mL of ethyl acetate was added as extracting solvent. The samples were vortexed for 5 min and centrifuged at 5000 rpm for 15 min at 4 °C. The organic layer was collected and evaporated to dryness at 40 ± 0.5 °C. The residue was reconstituted with 250 µL of mobile phase and vortexed for 1 min. Finally, 150 µL of sample was injected into HPLC for quantification.
A Thermo Fisher Rapid Separation (RS) UHPLC System (Ultimate 3000) equipped with a pump (LPG-3400SD), Diode Array Detector (DAD) (DAD-3000) and autosampler (ACC-3000T) with 250 µL injection loop was used for purity analysis. The UHPLC system was equilibrated for approximately 40 min before beginning the sample analysis. Column temperature was 35° throughout the analysis. 6cf and I.S. were separated on Intersil® ODS (C18) column (250 × 4.6 mm, 5µm) with a mobile phase consisting of acetonitrile:water (60:40 % v/v) run in isocratic mode at a flow rate of 1 mL/min, detection wavelength 259 nm and injection volume of 150 µL. […] Control of hardware and data handling was performed using Chromeleon software version 7.2 SR4.

[7] = tested on: MCF-7 cells; assay: Annexin V/PI apoptosis assay by flow cytometry, MCF-7; format: cell-based, human; conditions: 6af at 2.61 µM, 6cf at 5.71 µM (respective IC50), 48 h
Procedure: (§2) The extent of apoptosis induced by compounds 6af and 6cf in MCF-7 and 4T1 cells was quantified by flow cytometry according to the manufacturer’s protocol. Briefly, cells were seeded in a 6-well plate at a cell density of 1 × 10^6 cells/well. After 24 h, the media was discarded and cells were treated with fresh media containing compounds 6af and 6cf at their respective IC50 concentrations for 48 h. After treatment, cells were trypsinized, harvested in PBS and collected by centrifugation for 5 min at 2000 rpm. Cells were then resuspended in 1X binding buffer and stained with FITC-labeled Annexin V Alexa Fluor 488 (5 μL) and propidium iodide (10 μL). Cells were analyzed using flow cytometer (Beckman Coulter), and data were analyzed with CytExpert software.

[8] = tested on: 4T1 (mouse mammary carcinoma) cells; assay: MTT cytotoxicity assay, 4T1; format: cell-based; conditions: Mus musculus, 10 µM, 48 h exposure, read-out: % Cell Viability at 10 µM 4T1
Procedure: as §1

[9] = tested on: 4T1 cells; assay: Annexin V/PI apoptosis assay by flow cytometry, 4T1; format: cell-based, mouse; conditions: 6af at 12.84 µM, 6cf at 8.76 µM (respective IC50), 48 h
Procedure: as §2

[10] = MTT cytotoxicity assay, normal cell line HEK 293; format: cell-based; conditions: human, HEK 293 cells, HEK 293 normal cells, 48 h exposure
Procedure: as §1

CC(CCC(=O)OCc1cn(Cc2cccc(Cn3cc(COC(=O)CCC(C)C4CCC5C6C(O)CC7CC(O)CCC7(C)C6CC(O)C45C)nn3)n2)nn1)C1CCC2C3C(O)CC4CC(O)CCC4(C)C3CC(O)C12C (centres unmarked) [V]
IC50 [1]: 3.98 µM

COC(=O)CCC(C)C1CCC2C3C(O)CC4CC(n5cc(CCCC#Cc6nc7c(N)ncnc7n6C6CC(O)C(CO)O6)nn5)CCC4(C)C3CCC12C (centres unmarked) [VII]
IC50 [2]: 10.5 ± 2.64 µM
IC50 [3]: 8.51 µM and 8.5 µM

CC(=O)c1ccc(OCc2cn(CC(=O)C3CCC4C5CC=C6CC(O)CCC6(C)C5CCC34C)nn2)cc1 (centres unmarked) [I]
IC50 [4]: 0.03 µM

CC(CCn1cc(CCCCC#Cc2nc3c(N)ncnc3n2C2CC(O)C(CO)O2)nn1)C1CCC2C3C(O)CC4CC(O)CCC4(C)C3CCC12C (centres unmarked) [VI]
IC50 [3]: 16.2 ± 2.2 µM

C[C@H](CCC(=O)NCc1cn(CC(=O)c2ccc(Br)cc2)nn1)C1CCC2C3C(C[C@H](O)[C@@]21C)[C@@]1(C)CC[C@@H](O)CC1C[C@H]3O (stereo partly drawn) [6cf, (4R)-N-((1-(2-(4-Bromophenyl)-2-oxoethyl)-1H-1,2,3-triazol-4-yl)methyl)-4-((3R,7R,10S,12S,13R)-3,7,12-trihydroxy-10,13-dimethylhexadecahydro-1H-cyclopenta[a]phenanthren-17-yl)pentanamide]
viability at 10 µM [5]: 37.5%
C0 ([6]; male, Wistar, iv, conversion of 1752.69 ng/mL, read-out: initial concentration converted to molar): ~2560 nM
AUC(0-t) ([6]; male, Wistar, iv, mean ± SEM, read-out: Area Under the Curve (0 to 12 h), AUC0–last): 2000 ± 87.4 ng·h/mL
AUC(0-inf) ([6]; male, Wistar, iv, mean ± SEM, read-out: Area Under the Curve (0 to infinity), AUC0–∞): 2690 ± 113 ng·h/mL
k el ([6]; male, Wistar, iv, mean ± SEM, read-out: Elimination Rate Constant, Ke (converted)): 3.61e-05 s⁻¹
half-life ([6]; male, Wistar, iv, mean ± SEM, read-out: Half-Life, t1/2 (converted)): 5.63 ± 0.539 h
C0 ([6]; male, Wistar, iv, mean ± SEM, read-out: Initial Concentration, C0): 1750 ± 66.5 ng/mL
MRT ([6]; male, Wistar, iv, mean ± SEM, read-out: Mean Residence Time, MRT): 8.47 ± 0.96 h
Area Under the First Moment Curve (0 to 12 h), AUMC0–last ([6]; mean ± SEM): 8155.94 ± 311.78 ng·h/mL
Area Under the First Moment Curve (0 to infinity), AUMC0–∞ ([6]; mean ± SEM): 22276.39 ± 2023.334 ng·h/mL
apoptosis (total) in MCF-7 cells [7]: 46.09%
viability at 10 µM [8]: 49.3%
total apoptosis in 4T1 cells [9]: 19.56%
melting point: 144 to 145 °C
viability at 48 h, 10 µM [10]: > 86%
